Test results taken from US20240368163A1, “COMPOUNDS AND METHODS FOR MODULATING SPLICING” (REMIX THERAPEUTICS INC., priority 2021, published 2024).

Experiments:
Assay type in all cases: cell-based, human
[1] = tested on: Target C; experiment: Splicing RT-qPCR panel, Target C canonical junction (CJ) mRNA; settings: Homo sapiens, RT-qPCR panel, canonical junction mRNA; compound concentration having 50% response in CJ decrease; read-out: Target C IC50 (decrease in CJ mRNA levels)
Procedure: (§1) Compounds described herein were used to modulate RNA transcript abundance in cells. The expression of a target mRNA was measured by detecting the formation of an exon-exon junction in the canonical transcript (CJ). A compound mediated exon-inclusion event was detected by observing an increase in formation of a new junction with an alternative exon (AJ). Real-time qPCR assays were used to detect these splicing switches and interrogate the potency of various compounds towards different target genes. A high-throughput real time quantitative PCR (RT-qPCR) assay was developed to measure these two isoforms of the mRNA (CJ and AJ) for exemplary genes, such as HTT, SMN2, and MYB, together with a control housekeeping gene, GAPDH or GUSB or PPIA, used for normalization. Briefly, the A673 or K562 cell line was treated with various compounds described herein (e.g., compounds of Formula (I)). After treatment, the levels of the HTT, MYB, or SMN2 mRNA targets were determined from each sample of cell lysate by cDNA synthesis followed by qPCR.
(§2) The A673 cell line was cultured in DMEM with 10% FBS. Cells were diluted with full growth media and plated in a 96-well plate (15,000 cells in 100 ul media per well). The plate was incubated at 37° C. with 5% CO2 for 24 hours to allow cells to adhere. An 11-point 3-fold serial dilution of the compounds was made in DMSO then diluted in media in an intermediate plate. Compounds were transferred from the intermediate plate to the cell plate with the top dose at a final concentration of 10 uM in the well. Final DMSO concentration was kept at or below 0.25%. The cell plate was returned to the incubator at 37° C. with 5% CO2 for an additional 24 hours.
(§3) The K562 cell line was cultured in IMDM with 10% FBS. For K562, cells were diluted with full growth media and plated in either a 96-well plate (50,000 cells in 50 uL media per well) or a 384-well plate (8,000-40,000 cells in 45 uL media per well). An 11-point 3-fold serial dilution of the compounds were made in DMSO then diluted in media in an intermediate plate. Compound was transferred from the intermediate plate to the cell plate with the top dose at a final concentration of 10 uM in the well. Final DMSO concentration was kept at or below 0.25%. Final volume was 100 uL for 96-well plate and 50 uL for 384-well plate. The cell plate was then placed in an incubator at 37° C. with 5% CO2 for 24 hours.
(§4) The cells were then gently washed with 50 uL-100 uL cold PBS before proceeding to addition of lysis buffer. 30 uL-50 μL of room temperature lysis buffer with DNAse I (and optionally RNAsin) was added to each well. Cells were shaken/mixed thoroughly at room temperature for 5-10 minutes for lysis to take place and then 3 uL-5 μL of room temperature stop solution was added and wells were shaken/mixed again. After 2-5 minutes, the cell lysate plate was transferred to ice for RT-qPCR reaction setup. The lysates could also be frozen at −80° C. for later use.
(§5) In some cases, a direct lysis buffer was used. An appropriate volume of 3× lysis buffer (10 mM Tris, 150 mM NaCl, 1.5%-2.5% Igepal and 0.1-1 U/uL RNAsin, pH 7.4) was directly added to either K562 or A673 cells in media and mixed by pipetting 3 times. The plates were then incubated at room temperature with shaking/rocking for 20-50 minutes to allow for lysis to take place. After this time, the cell lysate plate was transferred to ice to set up for the RT-qPCR reactions. The lysates could also be frozen at −80° C. for later use.
(§6) To set up 10 uL RT-qPCR reactions, cell lysates were transferred to 384-well qPCR plates containing the master mix according to the table below. The plates were sealed, gently vortexed, and spun down before the run. The volumes were adjusted accordingly in some instances where the reaction was carried in 20 μL. The table below summarizes the components of the RT-qPCR reactions:
(§7) The RT-qPCR reaction was performed using a QuantStudio (ThermoFisher) under the following fast cycling conditions. […]

[2] = tested on: HTT; experiment: HiBiT protein abundance assay, HTT; settings: Homo sapiens, K562, 24 h, Table 13A, modified K562 cells
How it was run: (§8)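 HiBiT-tagged endogenous targets in K562 cells treated 24 h at 37° C. with 10-point 3-fold dilutions (top 10 μM, DMSO ≤0.25%). Luminescence read after lytic LgBiT detection; response normalised to unmodified-cell and DMSO controls, IC50 interpolated at 50% from four-parameter logistic fit.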

[3] = tested on: HTT; experiment: Splicing RT-qPCR assay, HTT mRNA canonical junction (CJ) and alternative junction (AJ); settings: Homo sapiens; for AC50: increase in AJ mRNA
Procedure: as §1, §2, §3, §4, §5, §6, §7

[4] = tested on: MYB; experiment: HiBiT protein abundance assay, MYB; settings: Homo sapiens, K562, 24 h, Table 13A, modified K562 cells
How it was run: as §8

[5] = tested on: Target C; experiment: HiBiT protein abundance assay, Target C; settings: Homo sapiens, K562, 24 h, Table 13A, modified K562 cells
How it was run: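 HiBiT knock-in K562-derived cells seeded at 10000/well and treated with 10-point 3-fold dilutions (top final 10 μM, ≤0.25% DMSO) for 24 h at 37 °C. Lytic HiBiT luminescence normalised to unmodified-cell and DMSO controls; IC50 from 4-parameter fit at 50% abundance.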

[6] = tested on: MYB; experiment: Splicing RT-qPCR assay, MYB mRNA canonical junction (CJ) and alternative junction (AJ); settings: Homo sapiens; for AC50: increase in AJ mRNA
How it was run: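 A673 or K562 cells treated 24 h at 37 °C with 11-point 3-fold dilutions, top 10 uM, DMSO ≤0.25%. Lysates read by RT-qPCR for CJ and AJ isoforms, normalized to GAPDH, GUSB or PPIA; ΔΔCt vs DMSO converted to RQ, then percent response.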

[7] = tested on: SMN2; experiment: Splicing RT-qPCR panel, SMN2 canonical junction (CJ) mRNA; settings: Homo sapiens, RT-qPCR panel, canonical junction mRNA; compound concentration having 50% response in CJ decrease; read-out: SMN2 IC50 (decrease in CJ mRNA levels)
Procedure: as §1, §2, §3, §4, §5, §6, §7

[8] = 24 h, decrease in CJ mRNA, A673 or K562 cells, 24 hours treatment, RT-qPCR, read-out: HTT CJ IC50
[9] = 24 h, A673 or K562 cells, 24 hours treatment, RT-qPCR
[10] = RT-qPCR panel, canonical junction mRNA, compound concentration having 50% response in CJ decrease, read-out: HTT IC50 (decrease in CJ mRNA levels)
[11] = 24 h, decrease in CJ mRNA, A673 or K562 cells, 24 hours treatment, RT-qPCR, read-out: MYB CJ IC50
[12] = RT-qPCR panel, canonical junction mRNA, compound concentration having 50% response in CJ decrease, read-out: MYB IC50 (decrease in CJ mRNA levels)

SMILES	IC50 [1]	IC50 [2]	IC50 [3, 8]	AC50 [3, 9]	IC50 [3, 10]	IC50 [4]	IC50 [5]	IC50 [6, 11]	AC50 [6, 9]	IC50 [6, 12]	IC50 [7]
CN(c1ccc(-c2ccc(-c3cnn(C)c3)c3scnc23)nn1)C1CC(C)(C)NC(C)(C)C1 [Compound 175]	> 10000 nM	1000 to 10000 nM	> 10000 nM	1000 to 10000 nM	> 10000 nM	1000 to 10000 nM	1000 to 10000 nM	> 10000 nM	1000 to 10000 nM	> 10000 nM	1000 to 10000 nM
Cc1[nH]ncc1-c1ccc(-c2ccc(N(C)C3CC(C)(C)NC(C)(C)C3)nn2)c2ncsc12 [Compound 176]	> 10000 nM	1000 to 10000 nM	> 10000 nM	> 10000 nM	> 10000 nM	1000 to 10000 nM	1000 to 10000 nM	> 10000 nM	> 10000 nM	> 10000 nM	> 10000 nM
COc1cc(-c2ccc(-c3ccc(N(C)C4CC(C)(C)NC(C)(C)C4)nn3)c3ncsc23)ccn1 [Compound 177]	> 10000 nM	1000 to 10000 nM	> 10000 nM	> 10000 nM	> 10000 nM	1000 to 10000 nM	1000 to 10000 nM	1000 to 10000 nM	> 10000 nM	1000 to 10000 nM	1000 to 10000 nM
CN(c1ccc(-c2ccc(-c3cnc(=O)[nH]c3)c3scnc23)nn1)C1CC(C)(C)NC(C)(C)C1 [Compound 179]	100 to 1000 nM	100 to 1000 nM	100 to 1000 nM	100 to 1000 nM	100 to 1000 nM	100 to 1000 nM	100 to 1000 nM	100 to 1000 nM	100 to 1000 nM	100 to 1000 nM	100 to 1000 nM
CN(c1ccc(-c2ccc(-c3ccc(=O)[nH]c3)c3scnc23)nn1)C1CC(C)(C)NC(C)(C)C1 [Compound 180]	100 to 1000 nM	100 to 1000 nM	100 to 1000 nM	100 to 1000 nM	100 to 1000 nM	100 to 1000 nM	100 to 1000 nM	100 to 1000 nM	100 to 1000 nM	100 to 1000 nM	100 to 1000 nM
CC1(C)CC(Oc2ccc(-c3ccc(-c4cn[nH]c4)c4ncsc34)nn2)CC(C)(C)N1 [Compound 181]	> 10000 nM	< 100 nM	> 10000 nM	> 10000 nM	> 10000 nM	< 100 nM	< 100 nM	> 10000 nM	> 10000 nM	> 10000 nM	< 100 nM
c1nc2c(-c3cn[nH]c3)ccc(-c3ccc(N4CCNCC4)nn3)c2s1 [Compound 185]	> 10000 nM	1000 to 10000 nM	> 10000 nM	1000 to 10000 nM	> 10000 nM	1000 to 10000 nM	1000 to 10000 nM	1000 to 10000 nM	> 10000 nM	1000 to 10000 nM	100 to 1000 nM
